According to BindingDB's records for doi:10.1016/j.bmcl.2010.01.018 (Schering-Plough Research Institute, 2010):

Assay: Inhibition of Aurora 2 kinase

Question: Which IC50 does the source give for `COc1c(O)cc2c3c(cc4ccc(O)cc4c13)NC2=O` [aristololactam A IIIa] here?
Answer: 2140 nM
